Assay [1] concerns the target T1, TYK2 (JH2domain-pseudokinase) (Homo sapiens, UniProt P29597).
T1 construct: TYK2 (JH2domain-pseudokinase)-tagged T7 phage strains were prepared in an E. coli host derived from the BL21 strain; made in house; host or cells: E. coli BL21-derived host (T7 phage) or HEK-293 cells
As to the kind of experiment: TYK2 JH2 domain binding assay (KINOMEscan). Put shortly:
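Competition binding of DNA-tagged TYK2 JH2 pseudokinase domain against immobilised affinity ligand, 1 h at room temperature in SeaBlock/PBS/Tween/DTT buffer with about 1% DMSO. Bound kinase eluted and quantified by qPCR. Kd taken from 11-point 3-fold series, usually 30,000 nM top, fitted by Levenberg-Marquardt nonlinear least squares.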

The subject of assay [2] is STAT1/3 through TYK2/JAK1. As to the kind of experiment: IFNa induced STAT phosphorylation in HEK293 cells (SIE-bla reporter gene). Type of assay: cell-based. The following applies: Homo sapiens, HEK293; HEK293T-sie-bla cells, IFNa at EC80, 4 hours; read-out: Inhibition of IFNa induced STAT phosphorylation HEK293 cells IC50. An outline of the steps:
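HEK293T cells carrying a SIE-driven β-lactamase reporter were co-treated with compound (1/5 serial dilution, 10 points, 0.1% DMSO final) and IFNa at EC80 for 4 h at 37°C. β-Lactamase substrate was added to stop the stimulation, followed by overnight dark incubation and FRET read. IC50 from a four-parameter logistic fit.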

Bounds are passed on as bounds.

T1 sequence (P29597 589-875 limits assumed): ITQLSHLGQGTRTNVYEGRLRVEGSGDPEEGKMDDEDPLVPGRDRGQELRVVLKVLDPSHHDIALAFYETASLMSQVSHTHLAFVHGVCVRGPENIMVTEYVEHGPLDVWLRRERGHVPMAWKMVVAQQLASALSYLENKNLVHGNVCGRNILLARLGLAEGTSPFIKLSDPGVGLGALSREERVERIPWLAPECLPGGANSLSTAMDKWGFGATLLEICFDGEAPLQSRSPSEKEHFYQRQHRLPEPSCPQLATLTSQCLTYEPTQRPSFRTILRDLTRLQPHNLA

The molecule `Cc1cc(Nc2cc(Nc3ccc(Br)cc3N(C)S(C)(=O)=O)ncn2)nc(C)n1` [Example 67, N-[5-bromo-2-[[6-[(2,6-dimethylpyrimidin-4-yl)amino]pyrimidin-4-yl]amino]phenyl]-N-methyl-methanesulfonamide] showed a dissociation constant Kd in assay [1] below 0.2 nM. In addition, the IC50 in assay [2] is 10 to 100 nM.
Taken in the same sequence, the figures for `Cc1ccc(Nc2cc(Nc3cc(C)nc(C)n3)ncn2)c(N(C)S(C)(=O)=O)c1` [Example 69, N-[2-[[6-[(2,6-dimethylpyrimidin-4-yl)amino]pyrimidin-4-yl]amino]-5-methyl-phenyl]-N-methyl-methanesulfonamide] were below 0.2 nM and 10 to 100 nM.
Taken in the same sequence, the figures for `Cc1cc(Nc2cc(Nc3ccccc3N(C)S(=O)(=O)C(F)(F)F)ncn2)nc(C)n1` [Example 71, N-[2-[[6-[(2,6-dimethylpyrimidin-4-yl)amino]pyrimidin-4-yl]amino]phenyl]-1,1,1-trifluoro-N-methyl-methanesulfonamide] were below 0.2 nM and 10 to 100 nM.
Molecule `Cc1cc(Nc2cc(Nc3ccccc3C(C)S(C)(=O)=O)ncn2)nc(C)n1` (stereo not drawn) [Example 72, N4-(2,6-dimethylpyrimidin-4-yl)-N6-[2-(1-methylsulfonylethyl)phenyl]pyrimidine-4,6-diamine] showed a Kd in assay [1] of 1 to 10 nM. Further, the half-maximal inhibitory concentration (IC50) in assay [2] was in the range of 100 to 1000 nM.
Taken in the same sequence, the figures for `Cc1cc(Nc2cc(Nc3ccccc3S(=O)(=O)N3CCCCC3)ncn2)nc(C)n1` [Example 73, N6-(2,6-dimethylpyrimidin-4-yl)-N4-[2-(1-piperidylsulfonyl)phenyl]pyrimidine-4,6-diamine] were above 10 nM and above 1000 nM.
On the same counts, the results for `Cc1cc(Nc2cc(Nc3cc(F)ccc3N(C)S(C)(=O)=O)ncn2)nc(C)n1` [Example 75, N-[2-[[6-[(2,6-dimethylpyrimidin-4-yl)amino]pyrimidin-4-yl]amino]-4-fluorophenyl]-N-methylmethanesulfonamide] are below 0.2 nM and 10 to 100 nM.
Molecule `Cc1cc(Nc2cc(Nc3cccc(F)c3N(C)S(C)(=O)=O)ncn2)nc(C)n1` [Example 76, N-[2-[[6-[(2,6-dimethylpyrimidin-4-yl)amino]pyrimidin-4-yl]amino]-6-fluorophenyl]-N-methylmethanesulfonamide] gave a Kd in assay [1] below 0.2 nM. The IC50 in assay [2] lay within 10 to 100 nM.
On the same counts, the results for `Cc1cc(Nc2cc(Nc3ccc(C(=O)N(C)C)cc3N(C)S(C)(=O)=O)ncn2)nc(C)n1` [Example 77, 4-[[6-[(2,6-dimethylpyrimidin-4-yl)amino]pyrimidin-4-yl]amino]-N,N-dimethyl-3-[methyl(methylsulfonyl)amino]benzamide] are below 0.2 nM and 10 to 100 nM.
Taken in the same sequence, the figures for `COc1cc(C(=O)N2CCCC2)ccc1Nc1cc(Nc2cc(C)nc(C)n2)ncn1` [Example 78, [4-[[6-[(2,6-dimethylpyrimidin-4-yl)amino]pyrimidin-4-yl]amino]-3-methoxy-phenyl]-pyrrolidin-1-yl-methanone] were 1 to 10 nM and above 1000 nM.
Consider `COc1cc(-c2ncc(F)cn2)ccc1Nc1cc(Nc2cc(C)nc(C)n2)ncn1` [Example 81, N4-(2,6-dimethylpyrimidin-4-yl)-N6-[4-(5-fluoropyrimidin-2-yl)-2-methoxyphenyl]pyrimidine-4,6-diamine], for which the equilibrium dissociation constant (Kd) in assay [1] was above 10 nM. Moreover, the IC50 in assay [2] was above 1000 nM.
The molecule `COc1c(Nc2cc(Nc3cc(C)nc(C)n3)ncn2)ccc(-c2ncn(C)n2)c1C` [Example 83, N6-(2,6-dimethylpyrimidin-4-yl)-N4-[2-methoxy-3-methyl-4-(1-methyl-1,2,4-triazol-3-yl)phenyl]pyrimidine-4,6-diamine] showed a dissociation constant (Kd) in assay [1] of 1 to 10 nM. Also, in assay [2], the IC50 was above 1000 nM.
On the same counts, the results for `COc1c(Nc2cc(Nc3cc(C)nc(C)n3)ncn2)ccc(-c2cnn(C)c2C)c1C` [Example 84, N4-[4-(1,5-dimethylpyrazol-4-yl)-2-methoxy-3-methyl-phenyl]-N6-(2,6-dimethylpyrimidin-4-yl)pyrimidine-4,6-diamine] are below 0.2 nM and 10 to 100 nM.
On the same counts, the results for `COc1cc(-c2ncn(C)n2)ccc1Nc1cc(Nc2cc(C)nc(C)n2)ncn1` [Example 85, N6-(2,6-dimethylpyrimidin-4-yl)-N4-[2-methoxy-4-(1-methyl-1,2,4-triazol-3-yl)phenyl]pyrimidine-4,6-diamine] are 1 to 10 nM and 10 to 100 nM.
Taken in the same sequence, the figures for `Cc1cc(Nc2cc(Nc3ncc(-c4cc(C(F)(F)F)nn4C)cc3N(C)S(C)(=O)=O)ncn2)nc(C)n1` [Example 87, N-[2-[[6-[(2,6-dimethylpyrimidin-4-yl)amino]pyrimidin-4-yl]amino]-5-[2-methyl-5-(trifluoromethyl)pyrazol-3-yl]-3-pyridyl]-N-methyl-methanesulfonamide] were 0.2 to 1 nM and above 1000 nM.
Take `Cc1cc(Nc2cc(Nc3ncc(-c4c(C)nn(C)c4C)cc3N(C)S(C)(=O)=O)ncn2)nc(C)n1` [Example 88, N-[2-[[6-[(2,6-dimethylpyrimidin-4-yl)amino]pyrimidin-4-yl]amino]-5-(1,3,5-trimethylpyrazol-4-yl)-3-pyridyl]-N-methyl-methanesulfonamide]: in assay [1], the Kd was below 0.2 nM. Also, the IC50 in assay [2] was 10 to 100 nM.
On the same counts, the results for `Cc1cc(Nc2cc(Nc3ccc(-c4cn[nH]c4C)cc3N(C)S(C)(=O)=O)ncn2)nc(C)n1` [Example 89, N-[2-[[6-[(2,6-dimethylpyrimidin-4-yl)amino]pyrimidin-4-yl]amino]-5-(5-methyl-1H-pyrazol-4-yl)phenyl]-N-methyl-methanesulfonamide] are below 0.2 nM and 10 to 100 nM.
Regarding `COc1cc(-c2cn(C)cn2)ccc1Nc1cc(Nc2cc(C)nc(C)n2)ncn1` [Example 90, N4-(2,6-dimethylpyrimidin-4-yl)-N6-[2-methoxy-4-(1-methylimidazol-4-yl)phenyl]pyrimidine-4,6-diamine], the Kd in assay [1] lay in the range of 1 to 10 nM. Further, in assay [2], the 50% inhibitory concentration (IC50) is above 1000 nM.
Take `COc1cc(-c2nccn2C)ccc1Nc1cc(Nc2cc(C)nc(C)n2)ncn1` [Example 91, N4-(2,6-dimethylpyrimidin-4-yl)-N6-[2-methoxy-4-(1-methylimidazol-2-yl)phenyl]pyrimidine-4,6-diamine]: the Kd in assay [1] lay in the range of 1 to 10 nM. Further, in assay [2], the IC50 lay within 100 to 1000 nM.
Turning to `Cc1cc(Nc2cc(Nc3ccc(C4=CCCCO4)cc3N(C)S(C)(=O)=O)ncn2)nc(C)n1` [Example 92, N-[5-(3,4-dihydro-2H-pyran-6-yl)-2-[[6-[(2,6-dimethylpyrimidin-4-yl)amino]pyrimidin-4-yl]amino]phenyl]-N-methylmethanesulfonamide], the Kd in assay [1] is below 0.2 nM. In assay [2], the 50% inhibitory concentration (IC50) is below 10 nM.
On to `COc1cc(-c2noc(C)n2)ccc1Nc1cc(Nc2cc(C)nc(C)n2)ncn1` [Example 93, N6-(2,6-dimethylpyrimidin-4-yl)-N4-[2-methoxy-4-(5-methyl-1,2,4-oxadiazol-3-yl)phenyl]pyrimidine-4,6-diamine], for which, in assay [1], the Kd lay within 1 to 10 nM. In addition, the IC50 in assay [2] was above 1000 nM.
In assay [1], `Cc1cc(Nc2cc(Nc3ccc(C4=CCCOC4)cc3N(C)S(C)(=O)=O)ncn2)nc(C)n1` [Example 94, N-[5-(3,6-dihydro-2H-pyran-5-yl)-2-[[6-[(2,6-dimethylpyrimidin-4-yl)amino]pyrimidin-4-yl]amino]phenyl]-N-methyl-methanesulfonamide] returned a dissociation constant (Kd) below 0.2 nM. The IC50 in assay [2] is below 10 nM.

These data come from patent EP4206196A1, “PYRIMIDINE SUBSTITUTED DERIVATIVES AS TYK2 INHIBITORS” (Almirall S.A., priority 2021, dated 2023).
